According to US8188148B2, “Substituted 1,3-diphenylpropane derivatives, preparations and uses thereof” (Genfit, priority 2006, dated 2012):

Columns and labels:
db/db mouse = assay: In vivo evaluation on db/db mouse: body weight, glycemia, insulinemia, plasma lipids; conditions: 50 mpk per os, 28 days
Protocol: The effect of the compounds according to the invention is evaluated in vivo on the db/db mouse by measuring the body weight evolution, the glucose levels, the insulin levels, the plasma total cholesterol and triglyceride levels, and by analyzing the distribution of cholesterol in different plasma lipoprotein fractions, after 28 days of a per os treatment with compounds according to the invention.
Female db/db mice were kept on a 12 hour/12 hour light/dark cycle at a constant temperature of 20±3° C. After a one week acclimatization period, the mice were weighed and divided into groups of 8 animals selected so as to render uniform the distribution of their body weights and their plasma lipid rates, determined before the experiment. The tested compounds were suspended in carboxymethylcellulose (Sigma C4888) and administered intra-gastric tube feeding once a day for 28 days at the chosen dose. The animals had free access to food and water (standard diet). Taking of food and weight gain are recorded throughout the experiment. At the end of the experiment, the animals were anesthetized after a 4 hour fast, a blood sample was taken using (EDTA) anticoagulant, then the mice were weighed and euthanized. The plasma was separated by centrifugation at 3000 rotations/minute for 20 minutes. The samples were kept at +4° C. The hepatic tissue and skeletal muscle tissue samples were taken and frozen immediately in liquid nitrogen then conserved at −80° C. for later analysis.
Murine plasma glucose is measured out according to an enzyme-colorimetric method using a Glucose RTU kit (Biomérieux). Glucose is transformed into gluconic acid under the action of glucose oxidase; the reaction releases hydrogen peroxide. Hydrogen peroxide is measured according to the Trinder reaction which, under the action of a peroxidase and in the presence of phenol and amino-4-antipyrine, produces water and a colored product, quinoneimine. The color intensity, due to the quinoneimine, is proportional to the amount of glucose present in the sample.
Murine insulin is measured using ELISA method (using the INSKR020 kit from provider Crystal chem.). A microplate is coated with a mouse anti-insulin antibody. Then, the serum to be assayed for insulin is placed onto the plate. A guinea pig anti-insulin antibody is used to recognize the complex formed by the mouse insulin and the anti-insulin monoclonal antibody. Finally an anti-guinea pig antibody labeled with peroxidase is added and bind to the guinea pig anti-insulin antibody. The colorimetric reaction is performed by adding an OPD (ortho phenyl diamine) enzyme substrate. The intensity of the color is proportional to the amount of insulin present in the sample.
Plasma lipid concentrations (total cholesterol and triglycerides) are measured by enzymatic assays (bioMérieux-Lyon-France) according to the provider's recommendations.
The different lipid fractions (VLDL, LDL, HDL) in the plasma were separated using gel-filtration chromatography. Cholesterol concentrations were then measured for each fraction by enzymatic assays (bioMérieux-Lyon-France) according to the provider's recommendations.

[1] = test system: PPARs target genes (PDK4, UCP2); assay: Hepatic and skeletal muscle gene expression by quantitative RT-PCR in db/db mouse; assay type: in vivo; conditions: 50 mpk, 28 days
Protocol: The effectiveness of the compounds according to the invention is also evaluated by measuring, in the hepatic and muscular (skeletal) tissues, the expression of genes involved in lipid and/or glucid metabolism and in energy dissipation. Each level of gene expression is normalized regarding the expression level of the reference gene 36B4 in the hepatic tissue, or regarding the expression level of the reference gene 18S in the gastrocnemius skeletal muscle. The induction factor, i.e. the ratio between the relative signal (induced by the compound according to the invention) and the average of the relative values obtained with the control group, is then calculated. The higher the induction factor is, the more the greater the compound promotes gene expression. The final result is represented as the average of the induction values obtained with each experimental group. • FIG. 4-8: Expression of PDK4 in the hepatic tissue of the db/db mouse, after 28 days of treatment with compound 1 and compound 3, administered at 50 mpk • FIG. 4-9: Expression of UCP2 (uncoupling protein 2) in the skeletal muscle tissue of the db/db mouse, after 28 days of treatment with compound 1 and compound 3, administered at 50 mpk
Total RNA was extracted from liver fragments by using a NucleoSpin® 96 RNA kit (Macherey Nagel, Hoerdt, France) according to the manufacturer's instructions.
Total RNA was extracted from gastrocnemius skeletal muscle fragments by using a RNeasy® Fibrous Tissue kit (Qiagen) according to the manufacturer's instructions.
1 μg of total RNA (quantified by spectrophotometry) was then reverse-transcripted into complementary DNA by means of a 1 hour reaction at 37° C. in a total volume of 20 μl containing a 1× buffer (Sigma), 1.5 mM of DTT, 0.18 mM of dNTPs (Promega), 200 ng of pdN6 (Amersham), 30 U of RNase inhibitor (Sigma), and 1 μl of MMLV-RT (Sigma).
The PCR quantitative experiments were carried out using the MyiQ Single-Color Real-Time PCR Detection System (Biorad, Marnes-la-Coquette, France) and were performed using the iQ SYBR Green Supermix kit according to the provider's recommendations, in 96-well plates in 5 μl of a diluted reverse-transcription solution at a hybridization temperature of 55° C. The specific primer pairs of the genes being studied were used:
The amount of fluorescence emitted is directly proportional to the amount of complementary DNA present at the beginning of the reaction and amplified during the PCR. For each target studied, a range of solutions is performed with successive dilutions of mixtures of a few microliters of different reverse-transcription solutions. The relative levels of expression of each target are thus determined by using efficiency curves obtained with the points relative to the range of PCR solutions. […]

THP-1 human monocytes = assay: Secretion of MCP1 by THP-1 monocytes stimulated with PMA; assay type: cell-based; conditions: THP-1 cells, 1 μM compound, 5 ng/ml PMA, 24 hours, vs DMSO
Protocol: The anti-inflammatory effects of the compound according to the invention is evaluated by measuring the secretion of MCP1 (Monocyte chemotactic protein-1) by THP1 monocytes treated for 24 hours with the compounds according to the invention and stimulated simultaneously with PMA (Phorbol 12-myristate 13-acetate, which promotes an inflammatory response in cells and their differentiation into macrophages).
The anti-inflammatory effects of the compounds according to the invention were evaluated by measuring the secretion of MCP1 (Monocyte chemotactic protein-1) by monocytes treated for 24 hours with compounds according to the invention and stimulated simultaneously with PMA (Phorbol 12-myristate 13-acetate, which promotes an inflammatory response in cells and their differentiation into macrophages). […]
The treatment medium is recovered and the MCP1 concentration is measured using the ELISA kit <<Human MCP-1 ELISA Set>> (BD OptEIA; 555179) in accordance with the manufacturer's recommendation.
MCP1 is laid on a plate and is recognized by an anti-MCP1 specific antibody. […] The coloration resulting from enzymatic activity is proportional to the quantity of fixed MCP1 and can be measured by a spectrophotometry method. A range is performed from a point representative of a known concentration and from which the MCP1 concentration of each sample is calculated. […]

Cc1cc(CCC(=O)c2ccc(Br)cc2)cc(C)c1OC(C)(C)C(=O)O [Compound 3, 2-[2,6-dimethyl-4-[3-[4-bromophenyl]-3-oxo-propyl]phenoxy]-2-methylpropanoic acid]
HDL-cholesterol fraction (distribution of cholesterol in plasma lipoprotein fractions) (db/db mouse): significant increase
plasma free fatty acids (db/db mouse; vs control): very significantly decreased
plasma triglycerides (db/db mouse; vs control): very significantly decreased
total plasma cholesterol (db/db mouse; vs control): significantly increased
expression of the gene coding for UCP2 in the skeletal muscle ([1]; gastrocnemius skeletal muscle): reduction
hepatic expression of the gene coding for PDK4 ([1]; hepatic tissue): significant increase
MCP1 secreted by monocytes (THP-1 human monocytes): significant reduction
